Laboratory results reported in patent US12214092B2, “Systems and methods for treating biological fluids” (Cerus Corporation, priority 2017, dated 2025).

How the values were obtained:
[1] = Photochemical conversion of S-59 (150 μM) and photoproduct profile in plasma, PAS or PAS+plasma units, HPLC; assay type: physicochemical
feline calicivirus (FCV) = assay: Photochemical inactivation of FCV in platelets (35% plasma/65% PAS) with amotosalen and 340 nm UVA, plaque assay; assay type: cell-based
platelets = assay: Platelet quality, platelets in 100% plasma, amotosalen 30-110 μM, 340 nm device ~7.2 J/cm^2
Method: Multiple donor platelet units in 10000 plasma (5 units, ˜278-391 mL) were pooled and split into 5 units of ˜285 mL each, to be used as an untreated control, or treated with amotosalen at different concentrations, with ultraviolet A illumination using the 340 nm device. Amotosalen was added to a concentration of 30, 60, 90 or 110 μM, then pre-illumination (pre-UV) samples were removed for analysis, and the remainder of the units subjected to illumination at ˜7.2 J/cm^2. Post-illumination (Post-UV) samples were then removed for post-treatment analysis.

[2] = 65/35 PAS+Plasma, 340 nm LED ~3.6 J/cm^2
[3] = 65/35 PAS+Plasma, 365 nm LED ~3.6 J/cm^2

## Cc1oc2c(C)c3oc(=O)cc(C)c3cc2c1COCCN [S-59, 3-(2-aminoethoxymethyl)-2,5,9-trimethylfuro[3,2-g]chromen-7-one]
[1]; [2]
  % of input S-59 remaining: 9.1%
  Post-illumination HPLC area counts: 1249
[1]; [3]
  % of input S-59 remaining: 46.2%
  Post-illumination HPLC area counts: 5889
[1]; PAS, 340 nm LED ~3 J/cm^2
  % of input S-59 remaining: 13.4%
  Post-illumination HPLC area counts: 1436
[1]; PAS, 365 nm LED ~3 J/cm^2
  % of input S-59 remaining: 36.8%
  Post-illumination HPLC area counts: 4118
[1]; PAS, INT100 ~6.4 J/cm^2
  % of input S-59 remaining: 26.2%
  Post-illumination HPLC area counts: 2905
[1]; Plasma, 340 nm LED ~6.4 J/cm^2
  % of input S-59 remaining: 33.1%
  Post-illumination HPLC area counts: 4957
[1]; Plasma, 365 nm LED ~6.4 J/cm^2
  % of input S-59 remaining: 66.8%
  Post-illumination HPLC area counts: 9675
[1]; Plasma, INT100 ~6.4 J/cm^2
  % of input S-59 remaining: 60.5%
  Post-illumination HPLC area counts: 8513
Feline calicivirus (FCV); 15 μM, 4 hr incubation, 340 nm ~3 J/cm^2
  Log inactivation: 2.7 log PFU/mL
Feline calicivirus (FCV); 15 μM, 8 hr incubation, 340 nm ~3 J/cm^2
  Log inactivation: 4.2 log PFU/mL
Feline calicivirus (FCV); 15 μM, 8 hr, 340 nm ~3 J/cm^2 Top Only
  Log inactivation: 4.1 log PFU/mL
Feline calicivirus (FCV); 15 μM, 8 hr, 340 nm ~3 J/cm^2 Top/Bottom
  Log inactivation: 3.9 log PFU/mL
Feline calicivirus (FCV); 15 μM, 24 hr incubation, 340 nm ~3 J/cm^2
  Log inactivation: >5.6 log PFU/mL
Feline calicivirus (FCV); 15 μM, 24 hr, 340 nm ~3 J/cm^2 Top Only
  Log inactivation: >6.3 log PFU/mL
Feline calicivirus (FCV); 15 μM, 24 hr, 340 nm ~3 J/cm^2 Top/Bottom
  Log inactivation: >6.3 log PFU/mL
Feline calicivirus (FCV); 30 μM, 4 hr incubation, 340 nm ~3 J/cm^2
  Log inactivation: 4.0 log PFU/mL
Feline calicivirus (FCV); 30 μM, 8 hr incubation, 340 nm ~3 J/cm^2
  Log inactivation: >5.6 log PFU/mL
Feline calicivirus (FCV); 30 μM, 8 hr, 340 nm ~3 J/cm^2 Top Only
  Log inactivation: >6.3 log PFU/mL
Feline calicivirus (FCV); 30 μM, 8 hr, 340 nm ~3 J/cm^2 Top/Bottom
  Log inactivation: 6.3 log PFU/mL
Feline calicivirus (FCV); 30 μM, 24 hr incubation, 340 nm ~3 J/cm^2
  Log inactivation: >5.6 log PFU/mL
Feline calicivirus (FCV); 30 μM, 24 hr, 340 nm ~3 J/cm^2 Top Only
  Log inactivation: >6.3 log PFU/mL
Feline calicivirus (FCV); 30 μM, 24 hr, 340 nm ~3 J/cm^2 Top/Bottom
  Log inactivation: >6.3 log PFU/mL
Feline calicivirus (FCV); 90 μM, 4 hr incubation, 340 nm ~3 J/cm^2
  Log inactivation: >5.6 log PFU/mL
Feline calicivirus (FCV); 90 μM, 8 hr incubation, 340 nm ~3 J/cm^2
  Log inactivation: >5.6 log PFU/mL
Feline calicivirus (FCV); 90 μM, 24 hr incubation, 340 nm ~3 J/cm^2
  Log inactivation: >5.6 log PFU/mL
Feline calicivirus (FCV); 150 μM, 0 hr incubation, 340 nm, more than twice ~3 J/cm^2
  Log inactivation: 2.5 log PFU/mL
Feline calicivirus (FCV); 150 μM, 0 hr, 340 nm Top Only (1-sided)
  Log inactivation: 4.6 log PFU/mL
Feline calicivirus (FCV); 150 μM, 0 hr, 340 nm Top/Bottom (2-sided)
  Log inactivation: 3.5 log PFU/mL
platelets; 30 μM, D3
  Glucose: 14.9 mmol/L
  LDH: 14.5 LDH IU/10^11 platelets
  Lactate: 6.9 mmol/L
  Platelet counts: 1155 x10^3 cells/μL
  Platelet lysis: 5.22%
  pCO2 at 37° C.: 38.1 mm Hg
  pH at 22° C.: 7.43
  pH at 37° C.: 7.21
  pO2 at 37° C.: 74.6 mm Hg
platelets; 30 μM, D7
  Glucose: 11.9 mmol/L
  LDH: 17.4 LDH IU/10^11 platelets
  Lactate: 12.1 mmol/L
  Platelet counts: 1155 x10^3 cells/μL
  Platelet lysis: 6.10%
  pCO2 at 37° C.: 31.2 mm Hg
  pH at 22° C.: 7.32
  pH at 37° C.: 7.10
  pO2 at 37° C.: 78.5 mm Hg
platelets; 30 μM, Post-UV
  Glucose: 15.9 mmol/L
  LDH: 15.0 LDH IU/10^11 platelets
  Lactate: 5.7 mmol/L
  Platelet counts: 1115 x10^3 cells/μL
  Platelet lysis: 5.31%
  pCO2 at 37° C.: 50.2 mm Hg
  pH at 22° C.: 7.37
  pH at 37° C.: 7.15
  pO2 at 37° C.: 13.9 mm Hg
platelets; 30 μM, Pre-UV
  Glucose: 16.0 mmol/L
  LDH: 13.7 LDH IU/10^11 platelets
  Lactate: 5.4 mmol/L
  Platelet counts: 1200 x10^3 cells/μL
  Platelet lysis: 4.92%
  pCO2 at 37° C.: 52.4 mm Hg
  pH at 22° C.: 7.36
  pH at 37° C.: 7.14
  pO2 at 37° C.: 28.6 mm Hg
platelets; 60 μM, D3
  Glucose: 15.0 mmol/L
  LDH: 13.9 LDH IU/10^11 platelets
  Lactate: 6.8 mmol/L
  Platelet counts: 1152 x10^3 cells/μL
  Platelet lysis: 5.15%
  pCO2 at 37° C.: 38.1 mm Hg
  pH at 22° C.: 7.43
  pH at 37° C.: 7.20
  pO2 at 37° C.: 65.8 mm Hg
platelets; 60 μM, D7
  Glucose: 11.6 mmol/L
  LDH: 36.5 LDH IU/10^11 platelets
  Lactate: 11.8 mmol/L
  Platelet counts: 1041 x10^3 cells/μL
  Platelet lysis: 11.82%
  pCO2 at 37° C.: 31.2 mm Hg
  pH at 22° C.: 7.32
  pH at 37° C.: 7.09
  pO2 at 37° C.: 78.0 mm Hg
platelets; 60 μM, Post-UV
  Glucose: 15.9 mmol/L
  LDH: 14.3 LDH IU/10^11 platelets
  Lactate: 5.6 mmol/L
  Platelet counts: 1117 x10^3 cells/μL
  Platelet lysis: 5.10%
  pCO2 at 37° C.: 49.2 mm Hg
  pH at 22° C.: 7.37
  pH at 37° C.: 7.15
  pO2 at 37° C.: 20.4 mm Hg
platelets; 60 μM, Pre-UV
  Glucose: 16.2 mmol/L
  LDH: 13.6 LDH IU/10^11 platelets
  Lactate: 5.4 mmol/L
  Platelet counts: 1160 x10^3 cells/μL
  Platelet lysis: 4.71%
  pCO2 at 37° C.: 52.4 mm Hg
  pH at 22° C.: 7.36
  pH at 37° C.: 7.14
  pO2 at 37° C.: 32.7 mm Hg
platelets; 90 μM, D3
  Glucose: 14.9 mmol/L
  Lactate: 7.3 mmol/L
  Platelet counts: 1157 x10^3 cells/μL
  Platelet lysis: 4.88%
  pCO2 at 37° C.: 40.3 mm Hg
  pH at 22° C.: 7.39
  pH at 37° C.: 7.17
  pO2 at 37° C.: 82.2 mm Hg
platelets; 90 μM, D7
  Glucose: 10.6 mmol/L
  Lactate: 13.6 mmol/L
  Platelet counts: 1199 x10^3 cells/μL
  Platelet lysis: 5.42%
  pCO2 at 37° C.: 33.5 mm Hg
  pH at 22° C.: 7.23
  pH at 37° C.: 7.00
  pO2 at 37° C.: 87.9 mm Hg
platelets; 90 μM, Post-UV
  Glucose: 15.9 mmol/L
  Lactate: 5.7 mmol/L
  Platelet counts: 1115 x10^3 cells/μL
  Platelet lysis: 5.13%
  pCO2 at 37° C.: 48.5 mm Hg
  pH at 22° C.: 7.37
  pH at 37° C.: 7.15
  pO2 at 37° C.: 24.1 mm Hg
platelets; 90 μM, Pre-UV
  Glucose: 15.9 mmol/L
  Lactate: 5.3 mmol/L
  Platelet counts: 1165 x10^3 cells/μL
  Platelet lysis: 4.97%
  pCO2 at 37° C.: 50.8 mm Hg
  pH at 22° C.: 7.37
  pH at 37° C.: 7.14
  pO2 at 37° C.: 54.6 mm Hg
platelets; 110 μM, D3
  Glucose: 14.7 mmol/L
  LDH: 17.0 LDH IU/10^11 platelets
  Lactate: 7.3 mmol/L
  Platelet counts: 1103 x10^3 cells/μL
  Platelet lysis: 5.90%
  pCO2 at 37° C.: 38.6 mm Hg
  pH at 22° C.: 7.40
  pH at 37° C.: 7.18
  pO2 at 37° C.: 69.9 mm Hg
platelets; 110 μM, D7
  Glucose: 10.4 mmol/L
  LDH: 16.0 LDH IU/10^11 platelets
  Lactate: 13.8 mmol/L
  Platelet counts: 1153 x10^3 cells/μL
  Platelet lysis: 6.13%
  pCO2 at 37° C.: 31.7 mm Hg
  pH at 22° C.: 7.24
  pH at 37° C.: 7.01
  pO2 at 37° C.: 90.5 mm Hg
platelets; 110 μM, Post-UV
  Glucose: 16.0 mmol/L
  LDH: 12.0 LDH IU/10^11 platelets
  Lactate: 5.4 mmol/L
  Platelet counts: 1239 x10^3 cells/μL
  Platelet lysis: 4.63%
  pCO2 at 37° C.: 48.1 mm Hg
  pH at 22° C.: 7.37
  pH at 37° C.: 7.14
  pO2 at 37° C.: 189.7 mm Hg
platelets; 110 μM, Pre-UV
  Glucose: 15.9 mmol/L
  LDH: 12.4 LDH IU/10^11 platelets
  Lactate: 5.3 mmol/L
  Platelet counts: 1209 x10^3 cells/μL
  Platelet lysis: 4.61%
  pCO2 at 37° C.: 51.8 mm Hg
  pH at 22° C.: 7.36
  pH at 37° C.: 7.13
  pO2 at 37° C.: 88.6 mm Hg
